The test deals with T1, APOL1 (Homo sapiens, UniProt O14791).
T1 sequence (O14791 1-398 S342G/I384M): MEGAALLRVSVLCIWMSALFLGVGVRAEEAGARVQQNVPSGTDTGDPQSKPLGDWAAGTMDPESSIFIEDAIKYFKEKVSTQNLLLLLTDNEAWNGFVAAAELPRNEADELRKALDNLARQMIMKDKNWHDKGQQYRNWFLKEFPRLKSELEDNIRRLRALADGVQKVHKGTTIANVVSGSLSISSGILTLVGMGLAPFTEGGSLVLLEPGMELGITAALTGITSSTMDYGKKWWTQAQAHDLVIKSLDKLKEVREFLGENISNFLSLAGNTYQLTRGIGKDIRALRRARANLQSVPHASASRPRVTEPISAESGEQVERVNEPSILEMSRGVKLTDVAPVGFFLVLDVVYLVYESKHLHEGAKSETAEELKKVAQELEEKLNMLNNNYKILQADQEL
The test can be described thus: MultiTox-Fluor Multiplex Cytotoxicity Assay in tet-inducible APOL1 T-REx-HEK293 cells (cell rescue, ratio of dead to live cells). The class given is cell-based. The following applies: tet-inducible transgenic APOL1 T-REx-HEK293 cell lines, 50 ng/mL tet, 24 hours; read-out: IP50 (i.e., IC50 for cell proliferation). The gist of the method: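 T-REx-HEK293 cells with tet-inducible APOL1 were treated with compound (10 μM top, 10-point 3-fold dilution, duplicate) plus 50 ng/mL tetracycline for 24 h at 37° C, in DMEM with 2% tet-free FBS. MultiTox-Fluor protease signals gave a dead/live ratio, normalized to no tet (100% viability) and tet alone (0%).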
In the case of `CCc1cc2c(s1)CCO[C@@]21CCN(C[C@H]2C[C@@H](NC(=O)OCCOCCOCCOC(=O)NCCOCCOCCCCCCCl)C2)[C@@H](C)C1` [Compound 386, 2-[2-[2-[[3-[[(2′S,4R)-2-ethyl-2′-methyl-spiro[6,7-dihydrothieno[3,2-c]pyran-4,4′-piperidine]-1′-yl]methyl]cyclobutyl]carbamoyloxy]ethoxy]ethoxy]ethyl N-[2-[2-(6-chlorohexoxy)ethoxy]ethyl]carbamate], the IC50 was below 0.1 µM.

For `CCc1cc2c(s1)CCO[C@@]21CCN(C[C@H]2C[C@@H](NC(=O)C(F)(F)F)C2)[C@@H](C)C1` [Compound 387, N-[3-[[(2′S,4R)-2-ethyl-2′-methyl-spiro[6,7-dihydrothieno[3,2-c]pyran-4,4′-piperidine]-1′-yl]methyl]cyclobutyl]-2,2,2-trifluoro-acetamide], the IC50 lay within 0.1 to 0.5 µM.

As for `CCc1cc2c(s1)CCO[C@@]21CCN(C[C@H]2C[C@@H](NS(=O)(=O)CCO)C2)[C@@H](C)C1` [Compound 388, N-[3-[[(2′S,4R)-2-ethyl-2′-methyl-spiro[6,7-dihydrothieno[3,2-c]pyran-4,4′-piperidine]-1′-yl]methyl]cyclobutyl]-2-hydroxy-ethanesulfonamide], the IC50 was below 0.1 µM.

Consider `CCc1cc2c(s1)CCO[C@@]21CCN(C[C@H]2C[C@@H](NS(=O)(=O)CC#N)C2)[C@@H](C)C1` [Compound 389], for which the IC50 was below 0.1 µM.

As for `CCc1cc2c(s1)CCO[C@@]21CCN(C[C@H]2C[C@@H](NS(=O)(=O)C3CC3)C2)[C@@H](C)C1` [Compound 390], the IC50 was below 0.1 µM.

On to `CCc1cc2c(s1)CCO[C@@]21CCN(C[C@H]2C[C@@H](NS(=O)(=O)c3ccc(C#N)cc3)C2)[C@@H](C)C1` [Compound 391], for which the IC50 is below 0.1 µM.

On to `CCc1cc2c(s1)CCO[C@@]21CCN(C[C@H]2C[C@@H](NS(=O)(=O)CC(=O)OC)C2)[C@@H](C)C1` [Compound 392], for which the IC50 is 0.5 to 1 µM.

Take `CCc1cc2c(s1)CCO[C@@]21CCN(C[C@H]2C[C@@H](NS(=O)(=O)Cc3cccc(C)c3)C2)[C@@H](C)C1` [Compound 393]: the IC50 was below 0.1 µM.

Consider `CCc1cc2c(s1)CCO[C@@]21CCN(C[C@H]2C[C@@H](NS(=O)(=O)CC)C2)[C@@H](C)C1` [Compound 394], for which the IC50 was below 0.1 µM.

On to `CCc1cc2c(s1)CCO[C@@]21CCN(C[C@H]2C[C@@H](NS(=O)(=O)C(C)C)C2)[C@@H](C)C1` [Compound 395], for which the IC50 is below 0.1 µM.

`CCc1cc2c(s1)CCO[C@@]21CCN(C[C@H]2C[C@@H](NS(=O)(=O)c3cccc(OC)c3)C2)[C@@H](C)C1` [Compound 396]: the IC50 is below 0.1 µM.

Consider `CCc1cc2c(s1)CCO[C@@]21CCN(C[C@H]2C[C@@H](NS(=O)(=O)c3ccccc3)C2)[C@@H](C)C1` [Compound 397], for which the IC50 was below 0.1 µM.

For `CCc1cc2c(s1)CCO[C@@]21CCN(C[C@H]2C[C@@H](NS(=O)(=O)Cc3ccccc3)C2)[C@@H](C)C1` [Compound 398], the IC50 is below 0.1 µM.

`CCc1cc2c(s1)CCO[C@@]21CCN(C[C@H]2C[C@@H](NS(=O)(=O)c3ccc(F)cc3)C2)[C@@H](C)C1` [Compound 399]: the IC50 is below 0.1 µM.

In the case of `CCc1cc2c(s1)CCO[C@@]21CCN(C[C@H]2C[C@@H](NS(=O)(=O)c3cccc(C#N)c3)C2)[C@@H](C)C1` [Compound 400], the IC50 was below 0.1 µM.

As for `CCc1cc2c(s1)CCO[C@@]21CCN(C[C@H]2C[C@@H](NS(=O)(=O)C3COC3)C2)[C@@H](C)C1` [Compound 401], the IC50 was below 0.1 µM.

Regarding `CCc1cc2c(s1)CCO[C@@]21CCN(C[C@H]2C[C@@H](NS(=O)(=O)c3ccc(OC)cc3)C2)[C@@H](C)C1` [Compound 402], the IC50 was below 0.1 µM.

For `CCc1ccc(S(=O)(=O)N[C@H]2C[C@@H](CN3CC[C@]4(C[C@@H]3C)OCCc3sc(CC)cc34)C2)s1` [Compound 403], the IC50 is below 0.1 µM.

For the compound `CCc1cc2c(s1)CCO[C@@]21CCN(C[C@H]2C[C@@H](NS(=O)(=O)c3ccccc3OC)C2)[C@@H](C)C1` [Compound 404], the IC50 is below 0.1 µM.

Regarding `CCc1cc2c(s1)CCO[C@@]21CCN(C[C@H]2C[C@@H](NS(=O)(=O)c3cccs3)C2)[C@@H](C)C1` [Compound 405], the IC50 was below 0.1 µM.

With `CCc1cc2c(s1)CCO[C@@]21CCN(C[C@H]2C[C@@H](NS(=O)(=O)c3cccc(C)c3)C2)[C@@H](C)C1` [Compound 406], the IC50 is below 0.1 µM.

For the compound `CCc1cc2c(s1)CCO[C@@]21CCN(C[C@H]2C[C@@H](NS(=O)(=O)c3cncc(Cl)c3)C2)[C@@H](C)C1` [Compound 407], the IC50 is below 0.1 µM.

`CCc1cc2c(s1)CCO[C@@]21CCN(C[C@H]2C[C@@H](NS(=O)(=O)c3ccccc3F)C2)[C@@H](C)C1` [Compound 408]: the IC50 was below 0.1 µM.

Regarding `CCc1cc2c(s1)CCO[C@@]21CCN(C[C@H]2C[C@@H](NS(=O)(=O)c3ccccc3Cl)C2)[C@@H](C)C1` [Compound 409], the IC50 is below 0.1 µM.

For the compound `CCc1cc2c(s1)CCO[C@@]21CCN(C[C@H]2C[C@@H](NS(C)(=O)=O)C2)[C@@H](C)C1` [Compound 410], the IC50 was below 0.1 µM.

In the case of `CCc1cc2c(s1)CCO[C@@]21CCN(C[C@H]2C[C@@H](NS(=O)(=O)C(F)(F)F)C2)[C@@H](C)C1` [Compound 411], the IC50 fell in the range of 0.1 to 0.5 µM.

For `CCc1cc2c(s1)CCO[C@@]21CCN(C[C@H]2C[C@@H](NS(=O)(=O)c3cnccc3Cl)C2)[C@@H](C)C1` [Compound 412], the IC50 was below 0.1 µM.

Turning to `CCc1cc2c(s1)CCO[C@@]21CCN(C[C@H]2C[C@@H](NS(=O)(=O)c3ccc(C(N)=O)cc3)C2)[C@@H](C)C1` [Compound 413], the IC50 was below 0.1 µM.

For `CCc1cc2c(s1)CCO[C@@]21CCN(C[C@H]2C[C@@H](NS(=O)(=O)CCC3NC(=O)NC3=O)C2)[C@@H](C)C1` (stereo partly shown) [Compound 415], the IC50 lay within 0.1 to 0.5 µM.

Regarding `CCc1cc2c(s1)CCO[C@@]21CCN(C[C@H]2C[C@@H](NS(=O)(=O)c3ccc4[nH]c(=O)[nH]c4c3)C2)[C@@H](C)C1` [Compound 416], the IC50 lay in the range of 0.1 to 0.5 µM.

For the compound `CCc1cc2c(s1)CCO[C@@]21CCN(C[C@H]2C[C@@H](NS(=O)(=O)CCCO)C2)[C@@H](C)C1` [Compound 417], the IC50 was in the range of 0.5 to 1 µM.

Take `CCc1cc2c(s1)CCO[C@@]21CCN(C[C@H]2C[C@H](NC(=O)OC(C)(C)C)C2)[C@@H](C)C1` [Compound 418, tert-butyl N-[3-[[(2′S,4R)-2-ethyl-2′-methyl-spiro[6,7-dihydrothieno[3,2-c]pyran-4,4′-piperidine]-1′-yl]methyl]cyclobutyl]carbamate]: the IC50 is 0.1 to 0.5 µM.

Take `CCc1cc2c(s1)CCO[C@@]21CCN(C[C@H]2C[C@H](N)C2)[C@@H](C)C1` [Compound 419, 3-[[(2′S,4R)-2-ethyl-2′-methyl-spiro[6,7-dihydrothieno[3,2-c]pyran-4,4′-piperidine]-1′-yl]methyl]cyclobutanamine]: the IC50 was 0.5 to 1 µM.

For the compound `CCc1cc2c(s1)CCO[C@@]21CCN(CC2CN(C(=O)OC(C)(C)C)C2)[C@@H](C)C1` [Compound 420, tert-butyl 3-[[(2′S,4R)-2-ethyl-2′-methyl-spiro[6,7-dihydrothieno[3,2-c]pyran-4,4′-piperidine]-1′-yl]methyl]azetidine-1-carboxylate], the IC50 was below 0.1 µM.

Values taken from patent US20250171459A1, “2-METHYL-4',5'-DIHYDROSPIRO[PIPERIDINE-4,7'-THIENO[2,3-C]PYRAN] DERIVATIVES AS INHIBITORS OF APOL1 AND METHODS OF USING SAME” (Vertex Pharmaceuticals Incorporated, priority 2022, published 2025).
